Laboratory results reported in patent US20050107386A1, “Methods of treating diseases and disorders by targeting multiple kinases” (priority 2003, published 2005).

Test system: HCT-116 cells
Test: SCID mouse/HCT-116 xenograft model
Details: for % Tumor Growth Inhibition: day 28; for TGD (500 mm^3): days to reach 500 mm^3; for TGD (1000 mm^3): days to reach 1000 mm^3

## CCc1c2c(nc3ccc(OC(=O)N4CCC(N5CCCCC5)CC4)cc13)-c1cc3c(c(=O)n1C2)COC(=O)[C@]3(O)CC.Cl [Camptosar, reference compound]
Table 3, i.p. 25 mg/kg q4d
  TGD (days to reach 1000 mm^3): >12 days
  % Tumor Growth Inhibition: 95.4%
Table 5, i.p. 2.5 mg/kg q4d
  % Tumor Growth Inhibition: 66%
  TGD (500 mm^3): >6 days
  TGD (1000 mm^3): >10 days
Table 5, i.p. 10 mg/kg q4d
  % Tumor Growth Inhibition: 90%
  TGD (500 mm^3): >13 days
  TGD (1000 mm^3): >10 days
